The numbers were not newly measured in US20070066602A1, “Process for Making Olanzapine Form I” (priority 2005, published 2007), which cites them from elsewhere.

The conditions of data set [1]: at pH 6.8; free base, crystalline solid.

Turning to `Cc1cc2c(s1)Nc1ccccc1N=C2N1CCN(C)CC1` [olanzapine, Olanzapine], the “solubility in water (qualitative)” value is given as “insoluble in water”. In addition, in data set [1], the solubility entry is “about 0.02 mg/ml”.
`Cc1cc2c(s1)Nc1ccccc1N=C2N1CCN(C)CC1.O=C(O)c1ccccc1` [Olanzapine benzoate]: the “solubility in water (qualitative)” value is given as “sparingly soluble in water”.
